Consider three compounds from patent US8217178B2, “[4-(5-aminomethyl-2-fluoro-phenyl)-piperidin-1-yl]-[7-flouro-1-(2-methoxy-ethyl)-4-trifluorom as an inhibitor of mast cell tryptase” (Sanofi, priority 2008, dated 2012).

In data set [1] the test system is antigen-induced airway hyperreactivity. The data set can be described thus: Antigen-induced airway hyperactivity assay in ovalbumin-sensitized guinea pigs. Type of data set: in vivo, guinea pig. The conditions noted are these: for Increase in Airway Resistance (Area Under Curve) / Dynamic Lung Compliance (Area Under Curve): 24 hours prior to antigen challenge, histamine challenge i.v.; for Increase in Airway Resistance (Area Under Curve): Saline 3490, OVA (no treatment) 12586; for Dynamic Lung Compliance (Area Under Curve): Saline −799, OVA (no treatment) −1386. As to the method:
Antigen sensitization and challenge: Male Hartley guinea pigs (225-250 g) were sensitized with ovalbumin (0.5 ml of 1% solution, i.p. and s.c.) on day 1 (Aug. 25, 2008). On day 4 (Aug. 28, 2008), animals received a booster injection (i.p.) of 0.5 ml of 1% ovalbumin. On day 21 (Sep. 16, 2008), animals were orally dosed (2 ml/kg) with either vehicle (0.5% methylcellulose/0.2% Tween 80) or compound(s) 24 hours prior to antigen challenge. Thirty minutes before antigen challenge the animals were also injected with mepyramine (10 mg/kg, i.p.) to prevent anaphylactic collapse. Animals were then exposed for 20 min to an aerosol of 1% ovalbumin using a DeVilbiss Ultraneb nebulizer. Negative control animals were not challenged. Sensitizing solution: One gram (1 g) of albumin from chicken egg white (Sigma A55031G; lot#087K7004) was added to 100 ml of saline and allowed to go into solution.
Airway resistance measurement: Eighteen to twenty four hours after challenge, animals were anesthetized, (0.5 ml dose (i.m.) of cocktail containing ketamine (62 mg/kg), xylazine (30 mg/kg) and Promace (1.5 mg/kg)), surgically prepared and then placed in a whole body plethysmograph. Animals were connected to Ugo-Basile ventilators delivering a tidal volume of 1 ml/100 g at a rate of 50 breaths/minute via a tracheal cannula. The jugular vein is also cannulated for histamine challenge. A-water filled esophageal cannula was placed such that transpulmonary pressure could be recorded. Transpulmonary pressure was measured as the difference between the tracheal and esophageal cannulas using a differential pressure transducer. The volume, airflow, and transpulmonary pressure signals are monitored using a pulmonary analysis system (Buxco XA software) and used to calculate pulmonary resistance (cmH2O/ml/s) and dynamic compliance (ml/cmH20). Airway resistance and dynamic compliance are computed on a breath-by-breath basis. Histamine is administered intravenously and reactivity to increasing concentrations (1-20 μg/kg) assessed.

Data set [2] is described as follows: Suspension of benzoate salt in water, solid form checked by XRPD and thermal analysis. The conditions noted are these: 50 mg/mL free base equivalent in nanopure water, total 29 hours as suspension, then air dried. Type of data set: physicochemical. As to the method:
Sample Preparation: Material was prepared as in the reference example 3 above. A suspension of the benzoate salt was prepared as 50 mg/mL free base equivalent in nanopure water, which was 63.6 mg salt in 1 mL water. Sample was stirred at 500 rpm overnight and allowed to stand for 4 hours before it was centrifuged (total 29 hours as suspension). It was centrifuged at 13000 rpm for 8 minutes and the collected solid was analyzed by XRPD (x-ray power diffraction) as wet sample and evaluated by microscope. The wet solid was then air dried at ambient room temperature overnight to be analyzed as the dry sample by XRPD and thermal analysis. The as is drug substance is compared as the initial material. The XRPD of free base drug substance was also used as the comparison. The benzoate appeared to be a variable hydrate, with the XRPD displaying the same peaks for different amounts of water.
• XRPD Method • Siemens Model D5000 with Cu anticathode • Program: 1.0 Sec. dql • Range: 2° to 40°. […]

Data set [3] deals with T1, recombinant human β tryptase (Homo sapiens, UniProt Q15661).
T1 construct: made in house; host or cells: yeast cells
The data set can be described thus: β-Tryptase inhibitory potency, in vitro enzyme assay (IC50 and Ki determination). Type of data set: biochemical. The conditions noted are these: 0.5 mM substrate S2366 (2×Km), room temperature, pH 8.2; Ki=IC50/(1+[Substrate]/Km). Here is the method:
Tryptase inhibition activity is confirmed using either isolated human lung tryptase or recombinant human β tryptase expressed in yeast cells. Essentially equivalent results are obtained using isolated native enzyme or the expressed enzyme. The assay procedure employs a 96 well microplate (Costar 3590) using L-pyroglutamyl-L-prolyl-L-arginine-para-nitroanilide (S2366: Quadratech) as substrate (essentially as described by McEuen et. al. Biochem Pharm, 1996, 52, pages 331-340). Assays are performed at room temperature using 0.5 mM substrate (2×Km) in 50 mM Tris (pH 8.2), 100 mM NaCl, 0.05% Tween 20, 50 μg/mL heparin, and the microplate is read on a microplate reader (Beckman Biomek Plate reader) at 405 nm wavelength.
The protocol is essentially the same as above except that the compound is added in duplicates at the following final concentrations: 0.01, 0.03, 0.1, 0.3, 1, 3, 10 μM (All dilutions carried out manually). For every assay, whether single point or IC50 determination, a standard compound is used to derive IC50 for comparison. From the IC50 value, the Ki can be calculated using the following formula: Ki=IC50/(1+[Substrate]/Km).

A word on the Ki: it is the dissociation constant of the complex between target and ligand, obtained from inhibition or displacement.

T1 sequence (Q15661 31-275): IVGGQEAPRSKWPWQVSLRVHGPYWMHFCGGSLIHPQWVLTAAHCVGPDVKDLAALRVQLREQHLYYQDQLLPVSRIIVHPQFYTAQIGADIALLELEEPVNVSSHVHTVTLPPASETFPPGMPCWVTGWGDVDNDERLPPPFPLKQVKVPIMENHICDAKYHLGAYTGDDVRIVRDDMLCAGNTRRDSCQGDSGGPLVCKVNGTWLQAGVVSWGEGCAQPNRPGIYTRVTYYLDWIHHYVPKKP

`COCCn1cc(C(=O)N2CCC(c3cc(CN)ccc3F)CC2)c2c(OC(F)(F)F)ccc(F)c21.COCCn1cc(C(=O)N2CCC(c3cc(CN)ccc3F)CC2)c2c(OC(F)(F)F)ccc(F)c21.O.O.O=C(O)/C=C/C(=O)O.O=C(O)/C=C/C(=O)O.O=C(O)/C=C/C(=O)O` [Fumarate Salt, [4-(5-Aminomethyl-2-fluorophenyl)piperidine-1-yl][7-fluoro-1-(2-methoxyethyl)-4-trifluoromethoxy-1H-indol-3-yl]methanone Sesquifumarate Monohydrate]: the “Increase in Airway Resistance (Area Under Curve)” value in data set [1] (0.01 mg/kg oral) is recorded as 9647 +/− 818; in data set [1] (0.03 mg/kg oral), 8103 +/− 745; in data set [1] (0.1 mg/kg oral), 6623 +/− 511. The “Dynamic Lung Compliance (Area Under Curve)” value was −1218 +/− 47 in data set [1] (0.01 mg/kg oral), −1156 +/− 40 in data set [1] (0.03 mg/kg oral) and −1004 +/− 43 in data set [1] (0.1 mg/kg oral). Further, the “Inhibition of antigen-induced airway hyperreactivity (in words)” value in data set [1] (dosed 24 hours prior to allergen challenge, guinea pig, oral) is listed as “dose-related inhibition of antigen-induced airway hyperreactivity”.

Take `COCCn1cc(C(=O)N2CCC(c3cc(CN)ccc3F)CC2)c2c(OC(F)(F)F)ccc(F)c21.O=C(O)c1ccccc1` [benzoate salt, [4-(5-Aminomethyl-2-fluorophenyl)piperidine-1-yl][7-fluoro-1-(2-methoxyethyl)-4-trifluoromethoxy-1H-indol-3-yl]methanone Benzoate]: the “Solid form stability in aqueous suspension (XRPD and thermal analysis)” value in data set [2] is “no free base or conversions to hydrate form were noted”.

Turning to `COCCn1cc(C(=O)N2CCC(c3cc(CN)ccc3F)CC2)c2c(OC(F)(F)F)ccc(F)c21` [compound of formula I, [4-(5-aminomethyl-2-fluoro-phenyl)-piperidin-1-yl]-[7-fluoro-1-(2-methoxy-ethyl)-4-trifluoromethoxy-1H-indol-3-yl]-methanone], the Ki in data set [3] came to 26 ± 5 nM.
